Results from US12024707B2, “Methods and compositions for modulating lncRNAs and methods of treatment based on lncRNA expression” (Washington University, priority 2020, dated 2024).
Counter-ions that a name gives are not always drawn. Starred links: 1 amine or outer side, 2 acyl side, 3 side chain; linkers in the order of their positions; H or OH if unused. Positions of bridges follow the written chain, without caps; N, C: chain ends. Non-standard residues stand in square brackets, D forms with d. Residues, ends and D or L forms follow the SMILES beside them. Chains are numbered I, II in the order given. Actinocin(9to1) = Cc1c2oc3c(C)ccc(C(=O)[*:1])c3nc-2c(C(=O)[*:2])c(N)c1=O; NMeV = CN[C@H](C(=O)O)C(C)C; Sar = CNCC(=O)O

Test system: HT29 RAMS11 overexpressing cells
Experiment: High-throughput viability assay (resazurin), 119 FDA-approved anticancer drugs, RAMS11 overexpressing cells (Clone1, Clone2)
Conditions: for Viability Fold Change: 72 h, vs empty vector control
[1] = OE1 (RAMS11 overexpression clone 1), 0.1 uM drug
[2] = OE1 (RAMS11 overexpression clone 1), 1 uM drug
[3] = OE1 (RAMS11 overexpression clone 1), 10 uM drug
[4] = OE2 (RAMS11 overexpression clone 2), 0.1 uM drug
[5] = OE2 (RAMS11 overexpression clone 2), 1 uM drug
[6] = OE2 (RAMS11 overexpression clone 2), 10 uM drug

Procedure: The FDA-approved anticancer panel included multiple classes of drugs such as kinase inhibitors, alkylating agents, antineoplastic antibiotics, anthracycline antibiotics, and antineoplastic agents (topoisomerase inhibitors). The HT29 RAMS11 overexpressing and control cells were treated for 72 h to assess cellular viability upon drug treatment (FIG. 14a and TABLE 3). […] Due to 5-FU commonly used to treat mCRC, we further determined if RAMS11 expression altered drug sensitivity in treated cells.
Drugs were diluted in DMSO to 1 mM and the well assignments were rearranged so drugs were confined to the inner 60 wells of 96-well plates. […] The next day serial diluted drug was added to pre-seeded plates in media containing 1% DMSO vehicle, using a Robbins Hydra 96 micro dispenser. Two 96-well plates of cells were used as vehicle controls. The plates were incubated for 3 days. Percent viability was scored by incubating cells for 3 h with resazurin sodium (0.023 mg/mL, Sigma R7017). The reaction was stopped by the addition of SDS (1% final concentration). Fluorescence Ex/Em 540/590 was read in a Biotek Synergy H1 plate reader (Winooski, VT). The fluorescence values for the vehicle plates were averaged and percent viability was determined by the formula: Percent viability=(average vehicle−value)/(average vehicle−average resazurin in media blank)×100. […] Assays were repeated more than three times.

Structure (SMILES) | Viability Fold Change [1] | Viability Fold Change [2] | Viability Fold Change [3] | Viability Fold Change [4] | Viability Fold Change [5] | Viability Fold Change [6] | increase in cellular viability compared with empty vector control cell line (HT29 RAMS11 overexpressing vs empty vector cells, treated 72 h)
COC(=O)C[C@](O)(CCCC(C)(C)O)C(=O)O[C@@H]1C(OC)=C[C@]23CCCN2CCc2cc4c(cc2[C@H]13)OCO4 [Omacetaxine mepesuccinate] | 1.354 | 1.614 | 1.606 | 1.376 | 1.468 | 1.436 | 
CN(C)c1nc(N(C)C)nc(N(C)C)n1 [Altretamine] | 0.949 | 0.9105 | 0.845 | 0.9299 | 0.9672 | 0.9171 | 
CC(=O)O[C@@]12CO[C@@H]1C[C@H](O)[C@@]1(C)C(=O)[C@H](O)C3=C(C)[C@@H](OC(=O)[C@H](O)[C@@H](NC(=O)OC(C)(C)C)c4ccccc4)C[C@@](O)([C@@H](OC(=O)c4ccccc4)[C@H]21)C3(C)C [Docetaxel] | 2.831 | 2.996 | 2.894 | 2.726 | 2.845 | 2.869 | 
NCCCNCCSP(=O)(O)O [Amifostine] | 0.9539 | 1.024 | 1.063 | 0.99 | 1.063 | 1.167 | 
Cc1nc(Nc2ncc(C(=O)Nc3c(C)cccc3Cl)s2)cc(N2CCN(CCO)CC2)n1 [Dasatinib] | 0.7242 | 1.289 | 1.518 | 0.7852 | 1.567 | 1.607 | 
Cc1c2oc3c(C)ccc(C(=O)N[C@@H]4C(=O)N[C@H](C(C)C)C(=O)N5CCC[C@H]5C(=O)N(C)CC(=O)N(C)[C@@H](C(C)C)C(=O)O[C@@H]4C)c3nc-2c(C(=O)N[C@@H]2C(=O)N[C@H](C(C)C)C(=O)N3CCC[C@H]3C(=O)N(C)CC(=O)N(C)[C@@H](C(C)C)C(=O)O[C@@H]2C)c(N)c1=O [Dactinomycin] (I: T[dV]P[Sar][NMeV] / II: T[dV]P[Sar][NMeV]; ester I:1-I:C, II:1-II:C; linker I:N-II:N via Actinocin(9to1)) | 1.513 | 1.552 | 2.719 | 1.417 | 1.475 | 2.498 | 
Nc1nc(Cl)nc2c1ncn2[C@H]1C[C@H](O)[C@@H](CO)O1 [Cladribine] | 0.8736 | 1.321 | 1.949 | 0.9358 | 1.327 | 1.86 | 
COc1cc([C@@H]2c3cc4c(cc3[C@@H](O[C@@H]3O[C@@H]5CO[C@@H](c6cccs6)O[C@H]5[C@H](O)[C@H]3O)[C@H]3COC(=O)[C@H]23)OCO4)cc(OC)c1O [Teniopside] | 1.038 | 1.327 | 2.288 | 0.9657 | 1.349 | 2.261 | 
S=c1nc[nH]c2nc[nH]c12 [Mercaptopurine] | 0.964 | 0.9982 | 1.006 | 0.9412 | 1.029 | 1.05 | 
CC(=O)[C@]1(O)Cc2c(O)c3c(c(O)c2[C@@H](O[C@H]2C[C@H](N)[C@H](O)[C@H](C)O2)C1)C(=O)c1ccccc1C3=O [Idarubicin hydrochloride] | 1.365 | 1.73 | 3.603 | 1.573 | 1.623 | 3.696 | 
C/C=C1\NC(=O)[C@H]2CSSCC/C=C/[C@H](CC(=O)N[C@H](C(C)C)C(=O)N2)OC(=O)[C@H](C(C)C)NC1=O [Romidepsin] | 6.243 | 5.327 | 4.427 | 6.211 | 5.577 | 4.697 | 
Cn1nnc2c(C(N)=O)ncn2c1=O [Temozolomide] | 0.9344 | 0.9467 | 0.8777 | 0.8975 | 1.032 | 0.9198 | 
Nc1nc2nc[nH]c2c(=S)[nH]1 [Thioguanine] | 0.9423 | 0.9288 | 0.9702 | 0.8995 | 0.8724 | 1.01 | 
CCCCC(=O)OCC(=O)[C@]1(O)Cc2c(O)c3c(c(O)c2[C@@H](O[C@H]2C[C@H](NC(=O)C(F)(F)F)[C@H](O)[C@H](C)O2)C1)C(=O)c1c(OC)cccc1C3=O [Valrubicin] | 0.9645 | 1.163 | 1.863 | 0.9166 | 1.213 | 1.792 | 
C[C@]12CC[C@@H]3c4ccc(O)cc4C[C@@H](CCCCCCCCC[S+]([O-])CCCC(F)(F)C(F)(F)F)[C@H]3[C@@H]1CC[C@@H]2O (stereo partly shown) [Fulvestrant] | 1.048 | 1.037 | 1.135 | 1.088 | 1.089 | 1.036 | 
CC(C)C[C@H](NC(=O)[C@H](Cc1ccccc1)NC(=O)c1cnccn1)B(O)O [Bortezomib] | 0.6015 | 1.059 | 1.152 | 0.5035 | 0.8063 | 0.9968 | 
c1cc(CN2CCCNCCNCCCNCC2)ccc1CN1CCCNCCNCCCNCC1 [Plerixafor] | 0.9866 | 1.152 | 1.057 | 1.085 | 1.208 | 1.062 | 
O=NN(CCCl)C(=O)NCCCl [Carmustine] | 1.007 | 0.9864 | 0.8696 | 1.005 | 1.079 | 1.04 | 
CO[C@H]1C[C@@H]2CC[C@@H](C)[C@@](O)(O2)C(=O)C(=O)N2CCCC[C@H]2C(=O)O[C@H]([C@H](C)C[C@@H]2CC[C@@H](OCCO)[C@H](OC)C2)CC(=O)[C@H](C)/C=C(\C)[C@@H](O)[C@@H](OC)C(=O)[C@H](C)C[C@H](C)/C=C/C=C/C=C/1C [Everolimus] | 0.6419 | 0.7474 | 0.6863 | 0.6484 | 0.7943 | 0.721 | 
CNC(=O)c1cc(Oc2ccc(NC(=O)Nc3ccc(Cl)c(C(F)(F)F)c3)c(F)c2)ccn1 [Regorafenib] | 0.938 | 0.9476 | 1.158 | 0.9919 | 1.09 | 1.143 | 
Nc1ncn([C@H]2C[C@H](O)[C@@H](CO)O2)c(=O)n1 [Decitabine] | 0.9064 | 0.9366 | 0.8624 | 1.026 | 1.091 | 1.168 | 
CS(=O)(=O)CCNCc1ccc(-c2ccc3ncnc(Nc4ccc(OCc5cccc(F)c5)c(Cl)c4)c3c2)o1 [Lapatinib] | 1.034 | 1.269 | 1.357 | 1.216 | 1.285 | 1.391 | 
O=c1[nH]c(=O)n([C@H]2C[C@H](O)[C@@H](CO)O2)cc1F [floxuridine, reference compound] | 1.541 | 2.291 | 2.964 | 1.569 | 2.375 | 3.091 | greatest resistance
CC[C@H](Nc1ncnc2[nH]cnc12)c1nc2cccc(F)c2c(=O)n1-c1ccccc1 [Idelalisib] | 0.9092 | 0.8875 | 0.9111 | 0.9773 | 0.8852 | 0.8746 | 
Nc1nc(Cl)nc2c1ncn2[C@@H]1O[C@H](CO)[C@@H](O)[C@@H]1F [Clofarabine] | 0.9141 | 1.361 | 2.473 | 1.012 | 1.421 | 2.375 | 
O=C1CCC(N2C(=O)c3ccccc3C2=O)C(=O)N1 (stereo not shown) [Thalidomide] | 0.9251 | 0.9878 | 0.9064 | 0.8995 | 1 | 1.074 | 
CC[C@@]1(O)C(=O)OCc2c1cc1n(c2=O)Cc2cc3c(CN(C)C)c(O)ccc3nc2-1 [Topotecan HCL] | 1.11 | 2.225 | 3.389 | 1.018 | 2.127 | 2.763 | 
